Source: patent US20020156301A1, “Triphenylmethane derivatives and use thereof” (Sumitomo Chemical Co., Ltd., priority 1997, published 2002)
Marks after values point to notes of the source that are not given here.

How the values were obtained:
ovariectomized rats = assay: Effects on ovariectomized rat: bone mineral density of tibial epiphysis; type: in vivo; conditions: 17 administrations, average for 5-8 animals, OVX control 79.9
Source text: Six-weeks old female SD rats (Charles River Japan) were subjected to ovariectomy of right and left ovaries, after one-week pre-feeding. Firstly, the hairs around the both flanks of the rats were shaved away. After anesthetizing the rat with diethyl ether, the area around the flanks was disinfected, and incised about 1 cm below the last ribs. The ovaries and uterus were extracted along with fats through the incision, and the ovaries were excised after ligating between ovaries and uterus with suture. The uterus and fats were then returned into the abdomens, and the incision was sutured. For rats receiving mock operations, ovaries were extracted as described above, and then returned into the abdomens as they were without ligature and excision. The rats which received such operations were divided into groups of four animals, and each group was housed in a polypropylene cage, and fed with chow (CRF-1; Charles River Japan) and water ad libitum.
A compound was weighed out into a mortar, and the crystals were finely ground with a pestle. To the ground compound, 1% hydroxypropyl cellulose (HPC, 150-400 cP) was then added in small amounts while rubbing for suspending and mixing the compound to prepare an administration liquid having a given concentration of the compound. Such liquids for administration were newly prepared every week.
The weights of ovariectomized rats described above were measured at an interval of one week, and the doses of the above liquid for administration were determined based on the weights. The same doses were used for one week until the next weight measurement. Administration to rats was started at one week after the ovariectomy, and the above liquids for administration were orally administered 17 times in total to groups of 5-8 animals through a 2 ml volume syringe attached with a metal sonde and once a day at a frequency of 5 times a week. […] The bone mineral density of the tibial epiphysis proximal to the knee was measured by an area scanning method.

[1] = system: α- and β-isoforms of human estrogen receptor; assay: Antiestrogenic activity: ERE-luciferase reporter in HeLa cells transfected with hERα or hERβ, with 17β-estradiol; type: cell-based; conditions: relative luminescence for β-isoform divided by that for α-isoform, 17β-estradiol 100 pM (α), 1 nM (β)
Source text: cDNA fragments for α- and β-isoforms of human estrogen receptor were cloned from a human liver cDNA library (Toyobo Co, Ltd.) by RT-PCR using oligonucleotides having the following base sequences as primers. For cloning the a-isoform, oligonucleotides 5′-[…]-3′ and 5′-[…]-3′ were used, while oligonucleotides 5′-[…]-3′ and 5′-[…]-3′ were used for cloning the β-isoform. The CDNA fragments for the α- and β-isoforms obtained by the RT-PCR procedures were blunt-ended, and each inserted into a vector for expression pRc/RSV (Invitrogen) at its blunt-ended Hind III cleavage site to obtain expression plasmids pRc-RSV-hERα and pRc-RSV-hERβ. In addition, an oligonucleotide 5′-[…]-3′ comprising an estrogen response element was inserted into a vector pGV-P (Toyo Ink Mfg. Co., Ltd.) at the Sma I cleavage site to obtain a luciferase reporter plasmid pGV-ERE.
Separately, HeLa cells which had been subcultured in Eagle's MEM medium containing 10% (v/v) phenol red-free and active charcoal-treated serum were inoculated in 24-well plates (φ16 mm well) at a density of 40,000 cells/well, cultured for 24 hours at 37° C. in the presence of 5% CO2, and then the medium was exchanged with serum-free Eagle's MEM medium.
The above expression plasmid pRc-RSV-hERα or pRc-RSV-hERβ, and the luciferase reporter plasmid pGV-ERE incorporating the estrogen response element were transfected into the above HeLa cells using the lipofectin method. Specifically, 0.3 μg of the expression plasmid pRc-RSV-hERα or pRc-RSV-hERβ, 0.1 μg of pGV-ERE, and 0.35 μl of Lipofectin mixed together, and added to the above HeLa cells. The HeLa cells were then cultured for 6 hours at 37° C. in the presence of 5% CO2. Next, the medium was exchanged with Eagle's MEM medium containing 10% serum (active charcoal-treated), and the cultivation was continued overnight at 37° C. under 5% CO2. Furthermore, the medium was exchanged with Eagle's MEM medium containing 10% serum (active charcoal-treated) which had been further supplemented with a solution of a test compound in DMSO (or DMSO alone) and 17β-estradiol (final concentration: 100 pM for the α-isoform, and 1 nM for the β-isoform), and the cells were cultured for 48 hours. After removing the medium and washing the cells twice with PBS(−), 50 μl/well of a lysis solution was added, and the cells were lysed at room temperature. An aliquot of this cell lysate was mixed with a luciferase assay substrate solution (Toyo Ink Mfg. Co., Ltd.), and the luminescence was measured using a luminometer. For each of α- and β-isoforms of estrogen receptor, the relative value of luminescence obtained in each experiment in which 17β-estradiol and a solution of one of test compounds in DMSO were added was then calculated, considering the luminescence obtained when 17β-estradiol and DMSO were added as 100. Next, the antiestrogenic activity (β/α) was calculated by dividing the relative value thus obtained for the β-isoform by that for the α-isoform.

[2] = system: Rat osteoblastic cell line UMR 106; assay: Effects on osteoblast: ALP activity and TGFβ amount; type: cell-based; conditions: two days, corrected for protein; for ALP activity, relative value considering the value for control as 1: UMR 106 cells; for TGFβ, relative value considering the value for control as 1: UMR 106 medium supernatant
Method: Rat osteoblastic cell line UMR 106 was subcultured in Eagle's MEM medium containing 10% fetal bovine serum (active charcoal-treated), inoculated in 6-well plates (φ 36 mm well) at a density of 20,000 cells/well, and cultured overnight in 2 ml/well of the same serum-containing Eagle's MEM medium at 37° C. in the presence of 5% CO2. On the following day, the medium was aspirated, and the wells were washed by adding 1 ml/well of serum-free Eagle's MEM medium supplemented with Supplement A (a solution of insulin, transferrin, and selenium; Gibco BRL). After aspirating the washings, 2 ml/well of serum-free Eagle's MEM medium supplemented with Supplement A was newly added, and the cultivation was further continued at 37° C. Two days after the medium exchange, the medium was aspirated from each well. Into the wells, 2 ml/well of serum-free Eagle's MEM medium containing Supplement A to which a solution of a test compound in DMSO (or DMSO alone) had been added and mixed was then added, and the cultivation was further continued at 37° C. Two days after the addition of compound, the medium was collected, centrifuged (14,000 rpm, 5 minutes), and the supernatant was aliquoted. To each 0.6 ml aliquot, 20 μl of 1N HCl was added, mixed and then they were stored with ice-cooling. On the other hand, the wells from which the medium had been removed were washed twice with PBS (−). After thoroughly removing the residual liquid, 0.5 ml/well of extra pure water was added, and the cells were harvested, and stored at −80° C. The ice-cold medium supernatant described above was neutralized with 1N NaOH, and 100 μl aliquot thereof was sampled, and used in quantifying TGFβ using an ELISA kit for TGFβ (Biochemical Research Institute, Morinaga Milk Industry Co. Ltd.). On the other hand, the frozen cells were thawed by bringing them to room temperature. The cell suspension thus obtained by thawing the frozen cells was then centrifuged (14,000 rpm, 5 minutes), and 50 μl of the supernatant was used in measurement of alkaline phosphatase (ALP) activity. ALP activity was measured according to the method of Lowry [J. Biol. Chem. vol. 207, 19-37 (1954)]. The samples remained without being used for measurements of TGFβ and ALP activity were used in quantification of protein according to the method of Lowry [J. Biol. Chem. vol. 193, 265-275 (1951)].
The relative values for the amount of TGFβ and the ALP activity after correcting for the amounts of protein are shown in Table 2.

Compound	Bone mineral density (ovariectomized rats; 0.1 mg/kg-weight/day oral)	Antiestrogenic activity (β/α) ([1]; compound 0.1 μM)	Antiestrogenic activity (β/α) ([1]; compound 1 μM)	Antiestrogenic activity (β/α) ([1]; compound 10 μM)	Bone mineral density (ovariectomized rats; 50 mg/kg-weight/day oral)	ALP activity, relative value considering the value for control as 1 ([2]; compound 0.1 μM)	TGFβ, relative value considering the value for control as 1 ([2]; compound 0.1 μM)	ALP activity, relative value considering the value for control as 1 ([2]; compound 1 μM)	TGFβ, relative value considering the value for control as 1 ([2]; compound 1 μM)
C#C[C@]1(O)CC[C@H]2[C@@H]3CCc4cc(O)ccc4[C@H]3CC[C@@]21C [ethinyl estradiol, reference compound]	88.6* mg/cm^2	–	–	–	–	–	–	–	–
Cc1cc(C(c2cccc(OCCN(C)C)c2)c2cc(C)c(O)c(C)c2C)c(C)c(C)c1O [Compound 3]	–	2.6	4.0	2.0	–	–	–	–	–
Cc1cc(C(c2cccc(OCCN(C)C)c2)c2cc(C)c(O)cc2C)c(C)cc1O [Compound 2, bis(2,5-dimethyl-4-hydroxyphenyl)[3-(2-dimethylamino-1-ethoxy)phenyl]methane]	–	19	5.5	2.3	91.2* mg/cm^2	1.5	–	–	–
Cc1cc(C(c2cccc(OCCN(C)C)c2)c2cc(C)c(O)c(C)c2)cc(C)c1O [Compound 5]	–	–	8.4	5.0	–	–	–	–	–
Cc1cc(C(c2ccc(OCCN(C)C)cc2)c2cc(C)c(O)cc2C)c(C)cc1O [Compound 1, bis(2,5-dimethyl-4-hydroxyphenyl)[4-(2-dimethylamino-1-ethoxy)phenyl]methane]	–	5.2	8.6	3.0	88.0* mg/cm^2	2.0	1.4	5.4	1.1
Cc1cc(C(c2ccc(OCCN(C)C)cc2)c2cc(C)c(O)c(C)c2)cc(C)c1O [Compound 4]	–	1.5	14	5.0	–	–	–	–	–
Hydroxytamoxifen [reference compound]	–	1.3	1.9	1.5	–	–	–	–	–
